Patent US20070179155A1, “N-phenyl-piperazine derivatives and methods of prophylaxis or treatment of 5ht2c receptor associated diseases” (priority 2003, published 2007)

Experiments:
[1] = target: 5HT2B receptor (Homo sapiens, UniProt P41595); test: Activity against the 5HT2B receptor (selectivity); type: cell-based
[2] = target: T1, human 5HT2C receptor (Homo sapiens, UniProt P28335); test: Intracellular IP3 accumulation assay (IP Accumulation Assay); type: cell-based; settings: HEK293 cells transfected with human 5HT2C receptor cDNA
T1 construct: expressed in transfected cells; host or cells: HEK293
T1 sequence (P28335 33-458): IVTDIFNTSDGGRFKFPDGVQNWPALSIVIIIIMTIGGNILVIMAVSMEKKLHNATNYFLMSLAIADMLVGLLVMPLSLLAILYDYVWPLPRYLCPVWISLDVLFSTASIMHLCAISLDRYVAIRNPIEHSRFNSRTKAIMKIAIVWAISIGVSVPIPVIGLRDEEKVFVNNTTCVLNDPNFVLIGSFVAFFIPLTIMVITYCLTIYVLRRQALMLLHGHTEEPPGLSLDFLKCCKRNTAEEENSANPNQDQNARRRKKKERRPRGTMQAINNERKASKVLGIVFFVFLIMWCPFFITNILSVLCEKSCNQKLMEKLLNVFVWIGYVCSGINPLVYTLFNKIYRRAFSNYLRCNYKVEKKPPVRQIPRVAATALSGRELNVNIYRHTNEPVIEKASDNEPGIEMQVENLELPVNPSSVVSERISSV
Description: HEK293 cells were transfected in 15 cm sterile dishes with or without (control) 16 ug of human 5HT2C receptor cDNA [for example see, Saltzman, A. G., et al. Biochem. Biophys. Res. Commun. 181, 1469-1478 (1991)] using 25 ul of lipofectamine. Cells were then incubated for 3-4 hours at 37° C./5% CO2 and then transfection media was removed and replaced with 100 ul of DMEM. Cells were then plated onto 100 cm sterile dishes. The next day cells were plated into 96 well PDL microtiter plates at a density of 55K/0.2 ml. Six hours latter, media was exchanged with [^3H]inositol (0.25 uCi/well) in inositol free DMEM and plates were incubated at 37° C./5% CO2 overnight. The next day, wells were aspirated and 200 ul of DMEM containing test compound, 10 uM pargyline, and 10 mM LiCl was added to appropriate wells. Plates were then incubated at 37° C./5% CO2 for three hours followed aspiration and by addition of fresh ice cold stop solution (1M KOH, 19 mM Na-borate, 3.8 mM EDTA) to each well. Plates were kept on ice for 5-10 min and the wells were neutralized by addition of 200 ul of fresh ice cold neutralization solution (7.5% HCl). Plates were then frozen until further processing is desired. The lysate was then transferred into 1.5 ml Eppendorf tubes and 1 ml of chloroform/methanol (1:2) was added/tube. […]

[3] = target: 5HT2A receptor (Homo sapiens, UniProt P28223); test: EC50 against the 5HT2A receptor (selectivity); type: cell-based
[4] = tested on: basal food intake; test: Inhibition of basal food intake in rats; type: in vivo, Male Sprague-Dawley rats; settings: p.o.; for ED50: Rattus norvegicus, po
Description: Male Sprague-Dawley rats (225-325 g) were accustomed to a reverse day/night schedule (lights on 6:30 pm to 10:30 am) for at least 10 days prior to testing. On the test day, the animals were weighed and placed into individual cages (no bedding) at 9:00 am with free access to water. At 10:00 am, animals were injected with test compound or vehicle (2 ml/kg, p.o.), with treatment groups counter-balanced according to animal weights. Immediately upon lights out at 10:30 am, each animal was presented with a pre-weighed amount of food in a dish. Food consumption over different time points was then determined by weighing the food cup at 2, 4, 6 and 22 hrs after the food was presented. Thus, food consumption was measured at 2.5, 4.5, 6.5, and 22.5 hrs post-injection.

5HT2A receptor, sequence (P28223 whole entry): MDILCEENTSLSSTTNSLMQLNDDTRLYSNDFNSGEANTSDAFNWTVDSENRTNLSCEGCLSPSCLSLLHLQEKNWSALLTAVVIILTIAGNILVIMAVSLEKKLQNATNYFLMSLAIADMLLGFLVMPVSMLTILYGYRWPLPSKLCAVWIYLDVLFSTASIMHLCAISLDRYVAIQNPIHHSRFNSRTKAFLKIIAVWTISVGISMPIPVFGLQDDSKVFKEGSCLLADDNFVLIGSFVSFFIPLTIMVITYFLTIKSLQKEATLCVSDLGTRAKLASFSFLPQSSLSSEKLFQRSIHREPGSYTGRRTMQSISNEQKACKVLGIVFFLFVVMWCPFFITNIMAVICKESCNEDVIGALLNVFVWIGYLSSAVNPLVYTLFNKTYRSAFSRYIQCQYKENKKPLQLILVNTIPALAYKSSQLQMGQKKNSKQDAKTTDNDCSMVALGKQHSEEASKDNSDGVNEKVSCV
5HT2B receptor, sequence (P41595 whole entry): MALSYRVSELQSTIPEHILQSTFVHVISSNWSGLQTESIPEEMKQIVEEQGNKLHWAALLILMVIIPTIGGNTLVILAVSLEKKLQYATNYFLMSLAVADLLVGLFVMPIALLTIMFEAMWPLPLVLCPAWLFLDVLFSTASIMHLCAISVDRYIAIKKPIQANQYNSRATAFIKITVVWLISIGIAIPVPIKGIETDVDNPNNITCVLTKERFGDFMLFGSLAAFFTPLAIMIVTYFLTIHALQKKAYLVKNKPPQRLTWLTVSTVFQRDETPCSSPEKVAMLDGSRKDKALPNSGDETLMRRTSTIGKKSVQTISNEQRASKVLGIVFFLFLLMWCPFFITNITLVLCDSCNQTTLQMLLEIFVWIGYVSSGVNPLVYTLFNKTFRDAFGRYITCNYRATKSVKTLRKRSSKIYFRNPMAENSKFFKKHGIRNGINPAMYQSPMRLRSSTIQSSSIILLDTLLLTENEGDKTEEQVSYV

Structure (SMILES) | activity against the 5HT2B receptor [1] | EC50 [2] | EC50 [3] | ED50 ([4]; 2 h, 2 hours after food presentation) | ED50 ([4]; 4 h, 4 hours after food presentation) | ED50 ([4]; 6 h, 6 hours after food presentation) | ED50 ([4]; 22 h, 22 hours after food presentation) | effect on food intake relative to vehicle-treated controls ([4]; all doses, first 4 hr after food presentation) | duration of food intake inhibition ([4]; highest dose tested)
C[C@@H]1CNCCN1c1cccc(Cl)c1F [Compound 23, (R)-1-(3-Chloro-2-fluoro-phenyl)-2-methyl-piperazine] | essentially inactive | 0.0074 µM | 0.044 µM | – | – | – | – | – | –
C[C@@H]1CNCCN1c1cc(Cl)ccc1F [Compound 44, (R)-1-(5-Chloro-2-fluoro-phenyl)-2-methyl-piperazine] | essentially inactive | 0.008 µM | 0.529 µM | 33 µmol/kg | 58 µmol/kg | 97 µmol/kg | 441 µmol/kg | inhibited food intake relative to vehicle-treated controls | maintained to 22 hrs after food presentation
